For one experiment, the system named is Septoria tritici. Description: In vivo protective test, Septoria tritici (blotch in wheat). Particulars: application rate 500 ppm, wheat plants, evaluation 21-28 days after inoculation, 0% = control, 100% = no infection. The procedure:
To produce an appropriate active ingredient formulation, active ingredient is mixed with acetone/Tween/DMSO and diluted with water to the appropriate concentration. Wheat plants (cultivar: Scipion) are cultivated in 50/50 peat/pozzolan substrate at 22° C. (12 h)/20° C. (12 h) and sprayed at the 1-leaf stage (height 10 cm) with the active ingredient formulation specified above. Control plants are sprayed with an aqueous solution without added active ingredient. After 24 hours, the plants are sprayed with a spore suspension of cryopreserved Septoria tritici (500 000 spores/ml).

A further experiment relates to Sphaerotheca fuliginea. Description: In vivo protective test, Sphaerotheca fuliginea (powdery mildew in gherkins). As to conditions: application rate 500 ppm, gherkin plants, evaluation 12 days after inoculation, 0% = control, 100% = no infection. The procedure:
Example: In vivo protective test, Sphaerotheca fuliginea (powdery mildew in gherkins) To produce an appropriate active ingredient formulation, active ingredient is mixed with acetone/Tween/DMSO and diluted with water to the appropriate concentration. Gherkin plants (cultivar: Vert petit de Paris) are cultivated in 50/50 peat/pozzolan substrate at 24° C. and sprayed at the Z11 cotyledon stage with the active ingredient formulation specified above. Plants which serve as a control are treated with an aqueous solution without active ingredient. After 24 hours, the plants are sprayed with a spore suspension of Sphaerotheca fuliginea (100 000 spores/ml). The spores are collected from infected plants. The inoculated plants are placed at 20/25° C. and at 60/70% relative humidity.

Another experiment relates to Phytophthora infestans. The class given is in vivo. As to conditions: application rate 500 ppm; protective, tomato plants; evaluation 5 days after infection; 0% = control, 100% = no infection.
The next experiment has as its system Botrytis cinerea. Description: In vivo protective test, Botrytis cinerea (gray mold in gherkins). Particulars: application rate 500 ppm, gherkin plants, evaluation 4-5 days after infection, 0% = control, 100% = no infection. How it is done:
To produce an appropriate active ingredient formulation, active ingredient is mixed with acetone/Tween/DMSO and diluted with water to the appropriate concentration. Gherkin plants (Vert petit de Paris) are cultivated in 50/50 peat/pozzolan substrate at 24° C. and sprayed at the Z11 stage with the active ingredient formulation specified above. Plants which serve as a control are treated with an aqueous solution without active ingredient. After 24 hours, the plants are sprayed with a spore suspension of Botrytis cinerea (50 000 spores/ml). The spores are suspended in a nutrient solution consisting of 10 g/L PDB, 50 g/L D-Fructose, 2 g/L NH4NO3 and 1 g/L KH2PO4. The inoculated gherkin plants are incubated at 17° C. and at 80% relative air humidity.

The next experiment deals with Plasmopara viticola. Description: Plasmopara test (grapevine)/protective. The class given is in vivo. Particulars: Plasmopara viticola on grapevine, protective, active ingredient concentration 100 ppm, 6 days after inoculation. The procedure: The plants are then moistened and placed in an incubation cabin for 1 day.
The subject of a further experiment is Venturia inaequalis. Description: Venturia test (apple)/protective. Particulars: Venturia inaequalis on apple, protective, active ingredient concentration 100 ppm, 10 days after inoculation.

The source of these data is US9516880B2, “Herbicidal and fungicidal 5-oxy-substituted 3-phenylisoxazoline-5-carboxamides and 5-oxy-substituted 3-phenylisoxazoline-5-thioamides” (BAYER CROPSCIENCE AG, priority 2012, dated 2016).

Experimental for Venturia inaequalis: • Solvents: 24.5 parts by weight of acetone • 24.5 parts by weight of dimethylacetamide • Emulsifier: 1 part by weight of alkylaryl polyglycol ether
To produce an appropriate active ingredient formulation, 1 part by weight of active ingredient is mixed with the stated amounts of solvent and emulsifier, and the concentrate is diluted with water to the desired concentration.
To test for protective efficacy, young plants are sprayed with the active ingredient formulation at the stated application rate. After the spray coating has dried on, the plants are inoculated with an aqueous conidia suspension of the apple scab pathogen Venturia inaequalis and then remain in an incubation cabin at about 20° C. and 100% relative air humidity for 1 day.
The plants are then placed in a greenhouse at about 21° C. and a relative air humidity of about 90%.
Evaluation follows 10 days after the inoculation.

Consider `COC1(C(N)=O)CC(c2cc(Br)cc(OC(F)(F)F)c2)=NO1` (centres unmarked) [Compound 1.32-1], for which the “Efficacy [%]” value with Septoria tritici amounted to 98%.
For the compound `COC1(C(=O)NCc2cccnc2Cl)CC(c2cc(F)cc(F)c2)=NO1` (centres unmarked) [Compound 1.11-238], the “Efficacy [%]” value was 83% in the experiment with Sphaerotheca fuliginea, 99% with Phytophthora infestans, 100% with Botrytis cinerea and 100% in the experiment with Septoria tritici.
On to `CCn1cc(CNC(=O)C2(OC)CC(c3cccc(Cl)c3)=NO2)cn1` (centres unmarked) [Compound 1.3-206], for which the “Efficacy [%]” value is listed as 94% with Sphaerotheca fuliginea and 100% in the experiment with Septoria tritici.
On to `CCOC(=O)CC(C)NC(=O)C1(OC)CC(c2cccc(CC)c2)=NO1` (centres unmarked) [Compound 1.6-96], for which the “Efficacy [%]” value in the experiment with Botrytis cinerea is recorded as 95%; in the experiment on Septoria tritici it was 75%.
Regarding `CCn1cc(CNC(=O)C2(OC)CC(c3cc(F)cc(C(F)(F)F)c3)=NO2)cn1` (centres unmarked) [Compound 1.18-206], the “Efficacy [%]” value is given as 95% in the experiment with Sphaerotheca fuliginea, 90% in the experiment with Phytophthora infestans and 100% in the experiment on Botrytis cinerea.
With `CCOC(=O)CCNC(=O)C1(OC)CC(c2cc(F)cc(OC)c2)=NO1` (centres unmarked) [Compound 1.16-94], in the experiment on Botrytis cinerea, the “Efficacy [%]” value is recorded as 75%.
`C=CCNC(=O)C1(OC)CC(c2cc(Cl)cc(OC(F)(F)F)c2)=NO1` (centres unmarked) [Compound 1.25-16]: the entries for the “Efficacy [%]” value in the experiment on Sphaerotheca fuliginea, in the experiment on Botrytis cinerea and in the experiment with Septoria tritici were 95%, 100% and 97%, respectively.
In the case of `COC1(C(=O)NCc2ccc(Cl)nc2)CC(c2cc(Cl)cc(Cl)c2)=NO1` (centres unmarked) [Compound 1.20-110], the “Efficacy [%]” value in the experiment with Botrytis cinerea is 83%; in the experiment with Septoria tritici it was 100%.
In the case of `COCC(C)NC(=O)C1(OC)CC(c2cc(F)cc(F)c2)=NO1` (single isomer, unassigned) [1.11-19 D1], the “Efficacy [%]” value in the experiment with Sphaerotheca fuliginea, in the experiment with Phytophthora infestans, in the experiment with Botrytis cinerea and with Septoria tritici was 100% throughout.
As to `COC1(C(=O)NC2(C#N)CC2)CC(c2cc(Cl)cc(Cl)c2)=NO1` (centres unmarked) [Compound 1.20-64], the “Efficacy [%]” value came out at 98% in the experiment with Sphaerotheca fuliginea, 100% with Phytophthora infestans, 70% in the experiment on Botrytis cinerea and 100% with Septoria tritici.
`CCn1cc(CNC(=O)C2(OC)CC(c3cc(C)cc(F)c3)=NO2)cn1` (centres unmarked) [Compound 1.14-206]: the “Efficacy [%]” value with Sphaerotheca fuliginea was determined as 98%; in the experiment on Phytophthora infestans, 100%; with Botrytis cinerea, 100%; in the experiment with Septoria tritici it was 100%.
Turning to `COC1(C(=O)NC2CC2)CC(c2cc(Br)cc(C(F)(F)F)c2)=NO1` (centres unmarked) [Compound 1.33-60], the “Efficacy [%]” value in the experiment on Sphaerotheca fuliginea, in the experiment with Botrytis cinerea and with Septoria tritici was 100% each time.
For the compound `COC1(C(=O)NCc2nc(C)cc(C)n2)CC(c2cc(F)cc(F)c2)=NO1` (centres unmarked) [Compound 1.11-189], the “Efficacy [%]” value in the experiment on Phytophthora infestans was 100%.
As to `COc1cc(F)cc(C2=NOC(OC)(C(=O)NCc3ccc(Cl)nc3)C2)c1` (centres unmarked) [Compound 1.16-110], the entries for the “Efficacy [%]” value with Sphaerotheca fuliginea, in the experiment with Botrytis cinerea and in the experiment on Septoria tritici were 89%, 100% and 100%, respectively.
As for `COC1(C(=O)NCc2ccncc2)CC(c2cc(Cl)cc(Cl)c2)=NO1` (centres unmarked) [Compound 1.20-135], the “Efficacy [%]” value is listed as 98% in the experiment with Sphaerotheca fuliginea, 100% in the experiment on Botrytis cinerea and 100% with Septoria tritici.
Consider `COC(=O)CCCNC(=O)C1(OC)CC(c2cc(Br)cc(C(F)(F)F)c2)=NO1` (centres unmarked) [Compound 1.33-102], for which the “Efficacy [%]” value with Sphaerotheca fuliginea and in the experiment with Septoria tritici was 100% in each case.
Take `CCOC1(C(=O)NCc2cnn(CC)c2)CC(c2cc(F)cc(F)c2)=NO1` (centres unmarked) [Compound 2.11-206]: the “Efficacy [%]” value in the experiment with Phytophthora infestans worked out at 100%; with Septoria tritici, 83%.
Take `CCOC(=O)CC(C)NC(=O)C1(OC)CC(c2cc(F)cc(OC)c2)=NO1` (centres unmarked) [Compound 1.16-96]: the “Efficacy [%]” value with Sphaerotheca fuliginea stood at 78%; in the experiment with Botrytis cinerea, 85%; in the experiment with Septoria tritici, 88%.
As to `CCn1cc(CNC(=O)C2(OC)CC(c3cc(Br)cc(OC(F)(F)F)c3)=NO2)cn1` (centres unmarked) [Compound 1.32-206], the “Efficacy [%]” value stood at 96% with Botrytis cinerea and 100% with Septoria tritici.
Turning to `COC1(C(=O)NCc2ccc(Cl)nc2)CC(c2cc(F)cc(F)c2)=NO1` (centres unmarked) [Compound 1.11-110], the “Efficacy [%]” value in the experiment with Sphaerotheca fuliginea came out at 78%; with Phytophthora infestans, 100%; in the experiment with Botrytis cinerea it was 90%; in the experiment with Septoria tritici, 100%.
`COC1(C(=O)NC2CC2)CC(c2cc(Br)cc(OC(F)(F)F)c2)=NO1` (centres unmarked) [Compound 1.32-60]: the “Efficacy [%]” value with Sphaerotheca fuliginea, in the experiment on Botrytis cinerea and in the experiment on Septoria tritici was 100% in each case.
For `COC1(C(=O)NC(C)C)CC(c2cc(Cl)cc(Cl)c2)=NO1` (centres unmarked) [Compound 1.20-5], the results for the “Efficacy [%]” value in the experiment on Plasmopara viticola and in the experiment on Venturia inaequalis were 99% and 96%, respectively.
As for `COCC(C)NC(=O)C1(OC)CC(c2cc(Cl)cc(Cl)c2)=NO1` (single isomer, unassigned) [1.20-19 D2], the “Efficacy [%]” value in the experiment on Sphaerotheca fuliginea, in the experiment with Phytophthora infestans, in the experiment with Botrytis cinerea and with Septoria tritici was 100% each time.
`COc1cccc(C2=NOC(OC)(C(=O)NCc3ccc(Cl)nc3)C2)c1` (centres unmarked) [Compound 1.7-110]: the “Efficacy [%]” value with Botrytis cinerea and with Septoria tritici was 100% in each case.
As to `COC1(C(=O)NCc2ccnc(Cl)c2)CC(c2cc(C)cc(F)c2)=NO1` (centres unmarked) [Compound 1.14-136], the “Efficacy [%]” value with Botrytis cinerea was 88%.
